Measured values as given in ChEMBL document CHEMBL4325859, “Research advances on anticancer activities of matrine and its derivatives: An updated overview” (Eur J Med Chem, 2019).
In brackets after ≈: the same amount, converted by molar mass.

Tests used:
MCF7 [1] = assay: Antiproliferative activity against human MCF7 cells after 48 hrs by MTT assay; assay type: functional, cell-based; conditions: MCF7, 48 h
[2] = Growth inhibition of human GRC1 cells at 0.5 g/L after 48 hrs by MTT assay relative to control; assay type: functional; conditions: read-out: GI
D341 cell line [3] = assay: Growth inhibition of human D341 cells at 2 mg/ml after 24 hrs by CCK8 assay relative to control; assay type: functional; conditions: D341, 24 h, read-out: GI
HepG2 [4] = assay: Antiproliferative activity against human HepG2 cells at 1 mg/ml after 24 hrs by MTT assay relative to control; assay type: functional
[5] = Growth inhibition of human GRC1 cells at 0.5 g/L after 96 hrs by MTT assay relative to control; assay type: functional; conditions: read-out: GI
MG-63 = assay: Growth inhibition of human MG63 cells at 0.8 mg/ml after 48 hrs by MTT assay relative to control; assay type: functional; conditions: MG-63, 48 h, read-out: GI
RD [6] = assay: Induction of apoptosis in human RD cells at 1 mg/ml after 24 hrs by Annexin V-FITC/propidium iodide staining based flow cytometry relative to control; assay type: functional
U-937 [7] = assay: Antiproliferative activity against human U937 cells after 24 hrs by MTT assay; assay type: functional, cell-based; conditions: U-937, 24 h
D341 cell line [8] = assay: Growth inhibition of human D341 cells at 1.5 mg/ml after 72 hrs by CCK8 assay relative to control; assay type: functional; conditions: D341, 72 h, read-out: GI
[9] = Growth inhibition of human GRC1 cells at 0.3 g/L after 96 hrs by MTT assay relative to control; assay type: functional; conditions: read-out: GI
HT-29 [10] = assay: Growth inhibition of human HT-29 cells at 16 ml/L after 24 hrs by MTT assay relative to control; assay type: functional
DU-145 = assay: Growth inhibition of human DU145 cells at 6 g/L after 72 hrs relative to control; assay type: functional; conditions: DU-145, 72 h, read-out: GI
RD [11] = assay: Induction of apoptosis in human RD cells at 0.5 mg/ml after 24 hrs by Annexin V-FITC/propidium iodide staining based flow cytometry relative to control; assay type: functional
HT-29 [12] = assay: Growth inhibition of human HT-29 cells at 4 ml/L after 48 hrs by MTT assay relative to control; assay type: functional
[13] = Growth inhibition of human MM1R cells at […] after 24 hrs relative to control; assay type: functional; conditions: MM.1R, read-out: GI
[14] = Growth inhibition of human GRC1 cells at 1 g/L after 24 hrs by MTT assay relative to control; assay type: functional; conditions: read-out: GI
UMR108 = assay: Growth inhibition of rat UMR108 cells assessed as cell proliferation at 1.5 mg/ml after 48 hrs by MTT assay (reference value: 0.404 +/- 0.008%); assay type: functional; conditions: UMR108, 48 h, read-out: Activity
HeLa [15] = assay: Induction of apoptosis in human HeLa cells at 25 ug/ml after 48 hrs by Annexin V-FITC/propidium iodide staining based flow cytometry relative to control; assay type: functional
[16] = Growth inhibition of human GRC1 cells at 0.8 g/L after 48 hrs by MTT assay relative to control; assay type: functional; conditions: read-out: GI
HeLa [17] = assay: Induction of apoptosis in human HeLa cells at 50 ug/ml after 48 hrs by Annexin V-FITC/propidium iodide staining based flow cytometry relative to control; assay type: functional
HT-29 [18] = assay: Growth inhibition of human HT-29 cells at 2 ml/L after 24 hrs by MTT assay relative to control; assay type: functional
5637 = assay: Antiproliferative activity against human 5637 cells after 48 hrs by CCK8 assay; assay type: functional, cell-based; conditions: Homo sapiens, 5637, 48 h
NB-4 [19] = assay: Antiproliferative activity against human NB4 cells after 24 hrs by MTT assay; assay type: functional, cell-based; conditions: NB-4, 24 h
D341 cell line [20] = assay: Growth inhibition of human D341 cells at 2 mg/ml after 72 hrs by CCK8 assay relative to control; assay type: functional; conditions: D341, 72 h, read-out: GI
BXPC-3 = assay: Induction of apoptosis in human BxPC3 cells at 1.25 mg/ml by flow cytometry (reference value: 2.81%); assay type: functional
PANC-1 = assay: Induction of apoptosis in human PANC1 cells at 0.75 mg/ml by flow cytometry (reference value: 4.13%); assay type: functional
U-937 [21] = assay: Induction of apoptosis in human U937 cells after 24 hrs by Annexin V-FITC/propidium iodide staining based flow cytometry relative to control; assay type: functional
HT-29 [22] = assay: Growth inhibition of human HT-29 cells at 32 ml/L after 36 hrs by MTT assay relative to control; assay type: functional
SGC-7901 = assay: Induction of apoptosis in human SGC7901 cells at 30 mg/ml after 48 hrs by propidium iodide staining based flow cytometry (reference value: 3.54 +/- 0.47%); assay type: functional
HT-29 [23] = assay: Growth inhibition of human HT-29 cells at 32 mg/ml after 48 hrs by MTT assay relative to control; assay type: functional; conditions: HT-29, 48 h, read-out: GI
NB-4 [24] = assay: Induction of apoptosis in human NB4 cells after 24 hrs by Annexin V-FITC/propidium iodide staining based flow cytometry relative to control; assay type: functional
HT-29 [25] = assay: Growth inhibition of human HT-29 cells at 1 mg/ml by MTT assay relative to control; assay type: functional; conditions: read-out: GI
RPMI-8226 [26] = assay: Growth inhibition of human RPMI8226 cells at 500 mg/L after 48 hrs by MTT assay relative to control; assay type: functional; conditions: RPMI-8226, 48 h, read-out: GI
SMMC-7721 = assay: Antiproliferative activity against human SMMC7721 cells at 5 ug/ml after 72 hrs by MTT assay relative to control; assay type: functional
[27] = Antiproliferative activity against human GBC-SD cells after 24 hrs by MTT assay; assay type: functional, cell-based
PC-3 = assay: Induction of apoptosis in human PC3 cells assessed as late apoptotic cells at 75 mg/mL (reference value: 2.5%); assay type: functional
MCF7 [28] = assay: Antiproliferative activity against human MCF7 cells after 72 hrs relative to control; assay type: functional
[29] = Antiproliferative activity against human GBC-SD cells after 48 hrs by MTT assay; assay type: functional, cell-based
Ca-Ski = assay: Antiproliferative activity against human CaSki cells after 48 hrs by CCK8 assay; assay type: functional, cell-based
HepG2 [30] = assay: Antiproliferative activity against human HepG2 cells at 0.8 mg/ml after 48 hrs relative to control; assay type: functional
RPMI-8226 [31] = assay: Induction of apoptosis in human RPMI8226 cells at 500 mg/L after 48 hrs by Annexin V/propidium iodide staining based flow cytometry (reference value: 3.02 +/- 1.19%); assay type: functional
HT-29 [32] = assay: Growth inhibition of human HT-29 cells at 4 ml/L after 36 hrs by MTT assay relative to control; assay type: functional
4T1 = assay: Antiproliferative activity against mouse 4T1 cells after 48 hrs by MTT assay; assay type: functional, cell-based; conditions: 4T1, 48 h
EJ = assay: Antiproliferative activity against human EJ cells after 48 hrs by CCK8 assay; assay type: functional, cell-based
LoVo = assay: Antiproliferative activity against human LoVo cells after 72 hrs by MTT assay; assay type: functional, cell-based
A549 = assay: Antiproliferative activity against human A549 cells at 1.5 g/L after 12 to 48 hrs by MTT assay relative to control; assay type: functional

What does the source list for `O=C1CCC[C@@H]2[C@H]3CCCN4CCC[C@@H](CN12)[C@@H]34` [MATRINE]?
IC50 (MCF7 [1]): 721 µg/mL (≈ 2.9 mM); inhibition of growth at 500 µg/mL [2]: 12.3%; inhibition of growth at 2000 µg/mL (D341 cell line [3]): 38%; Activity (HepG2 [4]): 6.28%; inhibition of growth at 500 µg/mL [5]: 22.4%; inhibition of growth at 800 µg/mL (MG-63): 20%; Activity (RD [6]): 26.5%; IC50 (U-937 [7]): 2.37 µM; inhibition of growth at 1500 µg/mL (D341 cell line [8]): 47.5%; inhibition of growth at 300 µg/mL [9]: 18.4%; growth inhibition (GI) (HT-29 [10]): 59.35%; inhibition of growth at 6000 µg/mL (DU-145): 90%; Activity (RD [11]): 22.8%; growth inhibition (GI) (HT-29 [12]): 54.22%; inhibition of growth at 2 g/mL [13]: 74%; inhibition of growth at 1000 µg/mL [14]: 23.6%; growth at 1500 µg/mL (UMR108): 0.205%; Activity (HeLa [15]): 8.91%; inhibition of growth at 800 µg/mL [16]: 23.1%; Activity (HeLa [17]): 19.53%; growth inhibition (GI) (HT-29 [18]): 9.2%; IC50 5637: 4480 µM; IC50 (NB-4 [19]): 2.66 µM; inhibition of growth at 2000 µg/mL (D341 cell line [20]): 59.3%; Activity (BXPC-3): 33.67%; Activity (PANC-1): 24.56%; Activity (U-937 [21]): 37.2%; growth inhibition (GI) (HT-29 [22]): 77.14%; Activity (SGC-7901): 12.89%; inhibition of growth at 32000 µg/mL (HT-29 [23]): 84.2%; Activity (NB-4 [24]): 33%; inhibition of growth at 1000 µg/mL (HT-29 [25]): 35.9%; inhibition of growth at 500 µg/mL (RPMI-8226 [26]): 17.9%; Activity (SMMC-7721): 3%; IC50 [27]: 3600 µM; Activity (PC-3): 15.1%; Activity (MCF7 [28]): 10.86 - 70.23%; IC50 [29]: 2000 µM; IC50 (Ca-Ski): 5800 µM; Activity (HepG2 [30]): 44.03%; Activity (RPMI-8226 [31]): 9.75%; growth inhibition (GI) (HT-29 [32]): 42.48%; IC50 (4T1): 1110 µg/mL (≈ 4.47 mM); IC50 (EJ): 5090 µM; IC50 (LoVo): 1660 µM; Activity (A549): 30%
